According to PMC10830420, “Structures, functions and adaptations of the human LINE-1 ORF2 protein” (Nature, 2023):

Assays:
[1] = test system: interferon production in THP1 cells; assay: Interferon reporter assay in THP1 cells (secreted luciferase); assay type: cell-based, human; conditions: 50 µM; THP1 cells, 1 µM decitabine
Experimental: Culture Collection ( AT CC); THP1-Dual and THP1- Dual KO-TREX1 cells were from InvivoGen. All cell lines were maintained at 37 °C and 5% CO2 and validated and tested for mycoplasma. All plasmids and affinity reagents are described in Supplementary Tables 4-5 , respectively and available from Addgene at https://www.addgene.org/browse/article/28243724/. […]
Interferon reporter assay in THP1 cells
The type I interferon response was evaluated using THP1 -Dual and THP1-Dual KO-TREX1 cells (InvivoGen), which secrete a Lucia luciferase reporter gene under control of an interferon- responsive promoter. THP1-Dual KO-TREX1 cell were generated by stable biallelic knock-out of the TREX1 gene. Cell were treated with a dose titration of test compound in the presence of 1 µM 5- aza-2ʹ-deoxycytidine (decitabine, Sigma, #189825), which de- represses LINE-1121. Type 1 Interferon and cell viability were assessed after five days of treatment. QUANTI-LUC solution containing stabilizer was added to the cell supernatant and luminescence was measured on a p la t e reader, and cells were assessed for cell viability using CellTiter-Glo (Promega, #G9683) according to the manufacturer’s instructions.
LINE-1 dual luciferase retrotransposition assay
To assess the potency of inhibiting LINE-1 retrotransposon, a stable clonal dual luciferase L1 reporter cell line was generated and reported as described130,133 in the HeLa Tet-On 3G cell line (Takara, ). SB100x161 was used to integrate pRT006.2, a vector similar to pYX056 130 , which contains a bi-directional Tet-On promoter expressing both control Renilla luciferase and LINE-1 ORFeus-Hs Firefly luciferase antisense intron (AI) r epor t er 79,162. A single cell clone was selected with the highest doxycycline-induced luciferase signal vs baseline. Cells were mixed with compounds and induced for reporter expression with 500 ng/mL doxycycline (Sigma, #D9891) for 72 hours. Luminescence was measured using the Dual-Glo Luciferase Assay System (Promega, #E2940) following the manufacturer’s instructions, and the ratio of Firefly to Renilla Luciferase activity was used to measure […]
Telomerase activity assay
The human telomerase assay was performed with telomerase in MCF- 7 cell lysates using the Telo TAGGG Telomerase PCR ELISAplus kit (Roche). Test compounds (NTPs) were serially diluted in water, mixed with 0.2 µg of M CF- 7 lysate, and pre- incubated at room temperature for 15 minutes. Then the reaction was carried out for 30 minutes, amplified using PCR, and visualized colorimetrically per t he manufacturer’s instructions.
Cells were lysed in ice cold RIPA buffer containing 1x protease inhibitor tablet (Thermo), centrifuged for 10 minutes, and clarified lysates were quantified by BCA assay. […]

[2] = target: T1, ORF2p core (Homo sapiens, UniProt O00370); assay: Homogeneous time-resolved fluorescence (HTRF) ORF2p RT assay; assay type: biochemical; conditions: HTRF; NRTI NTPs
T1 construct: His6-MBP-3C-ORF2p (238-1061, ORFeus-Hs) in pET41; His6-MBP (3C protease site) (N, cleaved yes); made in house; host or cells: E. coli
Experimental: ORF2p core was preincubated with a template:primer containing a single site for the incorporation of a given nucleotide analogue. The primer/template sequence shown in the panel a illustrates the case of single incorporation of 3TC, with a single G for incorporation; the incoming template sequence for entecavir and carbovir has a single C, and for d4T a single A, each at position labeled “N”. Reactions were incubated for one minute at 37 °C with a 100 nM dNTP mixture and increasing concentrations of listed inhibitors. IC50 index, fold = IC50 (drug, µM) ÷ [dNTP] […] Fluorescein-labeled dNTPs (here, uracil-TP) are incorporated by ORF2p into a biotinylated primer, here shown against a poly(A) template. Detection is then achieved using FRET with a terbium cryptate labeled streptavidin, and the time-resolved technique and time-delayed emission from terbium cryptate reduces background from other fluorescent chemicals in the mix. In the presence of ORF2p RT inhibitors (RTIs), base incorporation is stopped and FRET signal is lost. […]
ORF2p reverse transcriptase activity assays […]
For HTRF RT assays157, 25 nM ORF2p core and 12. 5 nM t em plat e: primer was incubated at 25°C for 60 minutes
with 10 nM of fluorescein- 12- dUTP (Thermo), 1 µM each (dATP,dCTP,dGTP), and test compound in a 15 µL
reaction with buffer containing 50 mM Tris-HCl, 50 mM KCl, 10 mM MgCl2, 10 mM DTT, pH 8.1, and 1% final

Q: Which “baseline and decitabine-induced IFN production” value [1] does the source give for `Cc1cn([C@H]2C=C[C@@H](CO)O2)c(=O)[nH]c1=O` [d4T, stavudine] here?
A: The value was “reduced”.

Q: And the IC50 [2]?
A: The IC50 was < 0.01 µM.
